# Assay results: patent US20250129104A1, “7H-PYRROLO[2,3-D]PYRIMIDINES AND PREPARATION AND USES THEREOF” (BioSplice Therapeutics, Inc., priority 2021, published 2025)
# Biological target: recombinant DYRK1A kinase (Homo sapiens (Human), UniProt Q13627)
# Experiment: DYRK1A kinase assay (Ser/Thr 18 peptide Z-lyte FRET assay)
# Assay type: biochemical
# Details: DYRK1A kinase activity; 15 μM ATP, 1 h room temperature; method text calls the value IC50
# How it was run: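 FRET Z-lyte read-out (coumarin/fluorescein ratio, % phosphorylation) after 1 h development; IC50 from non-linear curve fit. Reaction: 0.25 μg/mL recombinant human DYRK1A, Ser/Thr 18 peptide 4 μM, ATP 15 μM, compound in 11-point 1:3 series from 10 μM, 1 h, room temperature, duplicate wells.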
row,SMILES,EC50
1,"COC[C@@H](C)Nc1nc(OC)c2c(-c3ccc4nccn4c3)c[nH]c2n1 [Compound 2175, (R)-5-(Imidazo[1,2-a]pyridin-6-yl)-4-methoxy-N-(1-methoxypropan-2-yl)-7H-pyrrolo[2,3-d]pyrimidin-2-amine]",74.9 nM
2,"COc1nc(N[C@H]2CC[C@@H](OCC(F)F)CC2)nc2[nH]cc(-c3ccc4nccn4c3)c12 [Compound 2176, N-(cis-4-(2,2-Difluoroethoxy)cyclohexyl)-5-(imidazo[1,2-a]pyridin-6-yl)-4-methoxy-7H-pyrrolo[2,3-d]pyrimidin-2-amine]",2.1 nM
3,"CCOc1nc(N[C@H](C)C(F)(F)F)nc2[nH]cc(-c3ccc4nccn4c3)c12 [Compound 2177, (R)-4-Ethoxy-5-(imidazo[1,2-a]pyridin-6-yl)-N-(1,1,1-trifluoropropan-2-yl)-7H-pyrrolo[2,3-d]pyrimidin-2-amine]",10.3 nM
4,"C[C@@H](Nc1nc(OCCO)c2c(-c3ccc4nccn4c3)c[nH]c2n1)C(F)(F)F [Compound 2178, (R)-2-((5-(imidazo[1,2-a]pyridin-6-yl)-2-((1,1,1-trifluoropropan-2-yl)amino)-7H-pyrrolo[2,3-d]pyrimidin-4-yl)oxy)ethan-1-ol]",6.8 nM
5,"C[C@]1(O)CC[C@@H](Nc2ncc3c(-c4cc(F)c5nccn5c4)c[nH]c3n2)CC1 [Compound 2179, cis-4-((5-(8-Fluoroimidazo[1,2-a]pyridin-6-yl)-7H-pyrrolo[2,3-d]pyrimidin-2-yl)amino)-1-methylcyclohexan-1-ol]",2.2 nM
6,"[2H]C([2H])([2H])O[C@H]1CC[C@@H](Nc2ncc3c(-c4cc(F)c5nccn5c4)c[nH]c3n2)CC1 [Compound 2180, 5-(8-Fluoroimidazo[1,2-a]pyridin-6-yl)-N-(cis-4-(methoxy-d3)cyclohexyl)-7H-pyrrolo[2,3-d]pyrimidin-2-amine]",3.9 nM
7,"Fc1cc(-c2c[nH]c3nc(N[C@H]4CC[C@@H](OCC(F)F)CC4)ncc23)cn2ccnc12 [Compound 2181, N-(cis-4-(2,2-Difluoroethoxy)cyclohexyl)-5-(8-fluoroimidazo[1,2-a]pyridin-6-yl)-7H-pyrrolo[2,3-d]pyrimidin-2-amine]",5.1 nM
8,"OCCO[C@H]1CC[C@@H](Nc2ncc3c(-c4cc(F)c5nccn5c4)c[nH]c3n2)CC1 [Compound 2182, 2-((cis-4-((5-(8-Fluoroimidazo[1,2-a]pyridin-6-yl)-7H-pyrrolo[2,3-d]pyrimidin-2-yl)amino)cyclohexyl)oxy)ethan-1-ol]",3.1 nM
9,"COc1nc(N[C@H](C)C(F)(F)F)nc2[nH]cc(-c3cc(F)c4nccn4c3)c12 [Compound 2183, (R)-5-(8-Fluoroimidazo[1,2-a]pyridin-6-yl)-4-methoxy-N-(1,1,1-trifluoropropan-2-yl)-7H-pyrrolo[2,3-d]pyrimidin-2-amine]",10.4 nM
10,COC[C@@H](C)Nc1nc(OC)c2c(-c3cc(F)c4nccn4c3)c[nH]c2n1 [Compound 2184],69.9 nM
11,"COc1nc(NC2CCC(F)(F)CC2)nc2[nH]cc(-c3cc(F)c4nccn4c3)c12 [Compound 2185, N-(4,4-Difluorocyclohexyl)-5-(8-fluoroimidazo[1,2-a]pyridin-6-yl)-4-methoxy-7H-pyrrolo[2,3-d]pyrimidin-2-amine]",82 nM
12,"COc1nc(N[C@H]2CC[C@@](C)(O)CC2)nc2[nH]cc(-c3cc(F)c4nccn4c3)c12 [Compound 2186, cis-4-((5-(8-Fluoroimidazo[1,2-a]pyridin-6-yl)-4-methoxy-7H-pyrrolo[2,3-d]pyrimidin-2-yl)amino)-1-methylcyclohexan-1-ol]",2.3 nM
13,"COc1nc(N[C@H]2CC[C@@H](OCC(F)F)CC2)nc2[nH]cc(-c3cc(F)c4nccn4c3)c12 [Compound 2187, N-(cis-4-(2,2-Difluoroethoxy)cyclohexyl)-5-(8-fluoroimidazo[1,2-a]pyridin-6-yl)-4-methoxy-7H-pyrrolo[2,3-d]pyrimidin-2-amine]",3.6 nM
14,"COc1nc(NC2CCC3(CC2)OCCO3)nc2[nH]cc(-c3cc(F)c4nccn4c3)c12 [Compound 2188, 5-(8-Fluoroimidazo[1,2-a]pyridin-6-yl)-4-methoxy-N-(1,4-dioxaspiro[4.5]decan-8-yl)-7H-pyrrolo[2,3-d]pyrimidin-2-amine]",1.9 nM
15,"CCOc1nc(N[C@H](C)C(F)(F)F)nc2[nH]cc(-c3cc(F)c4nccn4c3)c12 [Compound 2189, (R)-4-Ethoxy-5-(8-fluoroimidazo[1,2-a]pyridin-6-yl)-N-(1,1,1-trifluoropropan-2-yl)-7H-pyrrolo[2,3-d]pyrimidin-2-amine]",8.1 nM
16,"CCOc1nc(N[C@H]2CC[C@@H](O)CC2)nc2[nH]cc(-c3cc(F)c4nccn4c3)c12 [Compound 2190, cis-4-((4-Ethoxy-5-(8-fluoroimidazo[1,2-a]pyridin-6-yl)-7H-pyrrolo[2,3-d]pyrimidin-2-yl)amino)cyclohexan-1-ol]",3 nM
17,"Cn1nnc2ccc(-c3c[nH]c4nc(N[C@H]5CC[C@@](C)(O)CC5)ncc34)cc21 [Compound 2191, cis-1-Methyl-4-((5-(1-methyl-1H-benzo[d][1,2,3]triazol-6-yl)-7H-pyrrolo[2,3-d]pyrimidin-2-yl)amino)cyclohexan-1-ol]",4.7 nM

row,SMILES,EC50
1,"Cn1nnc2ccc(-c3c[nH]c4nc(N[C@H]5CC[C@@H](OCC(F)F)CC5)ncc34)cc21 [Compound 2192, N-(cis-4-(2,2-Difluoroethoxy)cyclohexyl)-5-(1-methyl-1H-benzo[d][1,2,3]triazol-6-yl)-7H-pyrrolo[2,3-d]pyrimidin-2-amine]",6.9 nM
2,"COc1nc(N[C@H](C)C(F)(F)F)nc2[nH]cc(-c3ccc4nnn(C)c4c3)c12 [Compound 2193, (R)-4-Methoxy-5-(1-methyl-1H-benzo[d][1,2,3]triazol-6-yl)-N-(1,1,1-trifluoropropan-2-yl)-7H-pyrrolo[2,3-d]pyrimidin-2-amine]",2.1 nM
3,"COC[C@@H](C)Nc1nc(OC)c2c(-c3ccc4nnn(C)c4c3)c[nH]c2n1 [Compound 2194, (R)-4-Methoxy-N-(1-methoxypropan-2-yl)-5-(1-methyl-1H-benzo[d][1,2,3]triazol-6-yl)-7H-pyrrolo[2,3-d]pyrimidin-2-amine]",5.5 nM
4,"COc1nc(NC2CCN(C)CC2)nc2[nH]cc(-c3ccc4nnn(C)c4c3)c12 [Compound 2195, 4-Methoxy-5-(1-methyl-1H-benzo[d][1,2,3]triazol-6-yl)-N-(1-methylpiperidin-4-yl)-7H-pyrrolo[2,3-d]pyrimidin-2-amine]",9.4 nM
5,"CCOc1nc(N[C@H](C)C(F)(F)F)nc2[nH]cc(-c3ccc4nnn(C)c4c3)c12 [Compound 2196, (R)-4-Ethoxy-5-(1-methyl-1H-benzo[d][1,2,3]triazol-6-yl)-N-(1,1,1-trifluoropropan-2-yl)-7H-pyrrolo[2,3-d]pyrimidin-2-amine]",11.6 nM
6,"CCOc1nc(N[C@H]2CC[C@@H](O)CC2)nc2[nH]cc(-c3ccc4nnn(C)c4c3)c12 [Compound 2197, cis-4-((4-Ethoxy-5-(1-methyl-1H-benzo[d][1,2,3]triazol-6-yl)-7H-pyrrolo[2,3-d]pyrimidin-2-yl)amino)cyclohexan-1-ol]",1.5 nM
7,"COc1nc(NC2CCC(F)(F)CC2)nc2[nH]cc(-c3ccc4nnn(CC(F)F)c4c3)c12 [Compound 2198, N-(4,4-Difluorocyclohexyl)-5-(1-(2,2-difluoroethyl)-1H-benzo[d][1,2,3]triazol-6-yl)-4-methoxy-7H-pyrrolo[2,3-d]pyrimidin-2-amine]",170 nM
8,"FC(F)CO[C@H]1CC[C@@H](Nc2ncc3c(-c4ccc5nccn5n4)c[nH]c3n2)CC1 [Compound 2199, N-(cis-4-(2,2-Difluoroethoxy)cyclohexyl)-5-(imidazo[1,2-b]pyridazin-6-yl)-7H-pyrrolo[2,3-d]pyrimidin-2-amine]",2.2 nM
9,"[2H]C([2H])([2H])O[C@H]1CC[C@@H](Nc2ncc3c(-c4ccn5nccc5c4)c[nH]c3n2)CC1 [Compound 2200, N-(cis-4-(Methoxy-d3)cyclohexyl)-5-(pyrazolo[1,5-a]pyridin-5-yl)-7H-pyrrolo[2,3-d]pyrimidin-2-amine]",2.6 nM
10,"FC(F)CO[C@H]1CC[C@@H](Nc2ncc3c(-c4ccn5nccc5c4)c[nH]c3n2)CC1 [Compound 2201, N-(cis-4-(2,2-Difluoroethoxy)cyclohexyl)-5-(pyrazolo[1,5-a]pyridin-5-yl)-7H-pyrrolo[2,3-d]pyrimidin-2-amine]",5 nM
11,"OCCO[C@H]1CC[C@@H](Nc2ncc3c(-c4ccn5nccc5c4)c[nH]c3n2)CC1 [Compound 2202, 2-((cis-4-((5-(Pyrazolo[1,5-a]pyridin-5-yl)-7H-pyrrolo[2,3-d]pyrimidin-2-yl)amino)cyclohexyl)oxy)ethan-1-ol]",3.9 nM
12,"COCCO[C@H]1CC[C@@H](Nc2ncc3c(-c4ccn5nccc5c4)c[nH]c3n2)CC1 [Compound 2203, N-(cis-4-(2-Methoxyethoxy)cyclohexyl)-5-(pyrazolo[1,5-a]pyridin-5-yl)-7H-pyrrolo[2,3-d]pyrimidin-2-amine]",3.4 nM
13,"COc1nc(N[C@H](C)C(F)(F)F)nc2[nH]cc(-c3ccn4nccc4c3)c12 [Compound 2204, (R)-4-Methoxy-5-(pyrazolo[1,5-a]pyridin-5-yl)-N-(1,1,1-trifluoropropan-2-yl)-7H-pyrrolo[2,3-d]pyrimidin-2-amine]",15.4 nM
14,"COC[C@@H](C)Nc1nc(OC)c2c(-c3ccn4nccc4c3)c[nH]c2n1 [Compound 2205, (R)-4-Methoxy-N-(1-methoxypropan-2-yl)-5-(pyrazolo[1,5-a]pyridin-5-yl)-7H-pyrrolo[2,3-d]pyrimidin-2-amine]",79.5 nM
15,"COc1nc(NC2CCC(F)(F)CC2)nc2[nH]cc(-c3ccn4nccc4c3)c12 [Compound 2206, N-(4,4-Difluorocyclohexyl)-4-methoxy-5-(pyrazolo[1,5-a]pyridin-5-yl)-7H-pyrrolo[2,3-d]pyrimidin-2-amine]",3.2 nM
16,"COc1nc(N[C@H]2CC[C@@H](O)CC2)nc2[nH]cc(-c3ccn4nccc4c3)c12 [Compound 2207, cis-4-((4-Methoxy-5-(pyrazolo[1,5-a]pyridin-5-yl)-7H-pyrrolo[2,3-d]pyrimidin-2-yl)amino)cyclohexan-1-ol]",1.7 nM
